The compounds below were run on HL-60 (assay: Cytotoxicity against human HL60 cells by MTT assay).
Type: functional, cell-based

In order of falling IC50:
1. C[C@H]1O[C@@H](O[C@H]2CC[C@@]3(C)[C@@H](CC[C@]4(C)[C@@H]3C=CC3=C5CC(C)(C)CC[C@]5(CO)[C@@H](O)C[C@]34C)[C@]2(C)CO)[C@H](O)[C@@H](O[C@@H]2O[C@H](CO)[C@@H](O[C@@H]3OC[C@@H](O)[C@H](O)[C@H]3O)[C@H](O)[C@H]2O)[C@H]1O [MIMENGOSIDE D]  26.7 µM
2. C[C@@H]1O[C@@H](O[C@H]2[C@H](O)[C@@H](O)[C@H](O[C@H]3[C@@H](O)[C@@H](C)O[C@@H](O[C@H]4CC[C@@]5(C)[C@@H](CC[C@]6(C)[C@@H]5C=CC5=C7CC(C)(C)CC[C@]7(CO)[C@@H](O)C[C@]56C)[C@]4(C)CO)[C@@H]3O[C@@H]3O[C@H](CO)[C@@H](O)[C@H](O)[C@H]3O)O[C@@H]2CO)[C@H](O)[C@H](O)[C@H]1O [MIMENGOSIDE C]  23.2 µM
3. C[C@H]1O[C@@H](O[C@H]2CC[C@]3(C)C4=CC=C5[C@@H]6CC(C)(C)CC[C@]6(CO)[C@@H](O)C[C@@]5(C)[C@]4(C)CC[C@H]3[C@]2(C)CO)[C@H](O)[C@@H](O[C@@H]2O[C@H](CO)[C@@H](O[C@@H]3OC[C@@H](O)[C@H](O)[C@H]3O)[C@H](O)[C@H]2O)[C@H]1O [MIMENGOSIDE F]  22.7 µM
4. C[C@@H]1O[C@@H](O[C@H]2[C@H](O)[C@@H](O)[C@H](O[C@H]3[C@@H](O)[C@@H](C)O[C@@H](O[C@H]4CC[C@]5(C)C6=CC=C7[C@@H]8CC(C)(C)CC[C@]8(CO)[C@@H](O)C[C@@]7(C)[C@]6(C)CC[C@H]5[C@]4(C)CO)[C@@H]3O[C@@H]3O[C@H](CO)[C@@H](O)[C@H](O)[C@H]3O)O[C@@H]2CO)[C@H](O)[C@H](O)[C@H]1O [MIMENGOSIDE E]  16.8 µM
